Key:
[1] = system: h-TELO (DNA, G4) AGGGTTAGGGTTAGGGTTAGGGT; experiment: UV-Vis titration; details: K+ (100 mM KF, 10 mM potassium phosphate); PBS pH 7.4, ca. 20 °C; 5 μM DNA; 1:1 fit
[2] = system: dsDNA (DNA, hairpin, HEG linker (non-nucleotide loop) between 10 and 11) TATAGCTATATATAGCTATA; experiment: UV-Vis titration; details: K+ (100 mM KF, 10 mM potassium phosphate); PBS pH 7.4, ca. 20 °C; 5 μM DNA; 1:1 fit; per base
[3] = system: h-TELO (DNA, G4) AGGGTTAGGGTTAGGGTTAGGGT; experiment: variable-temperature CD; details: K+ (100 mM KF, 10 mM potassium phosphate); PBS pH 7.4; 5 μM DNA, 5 equivalents (25 μM) compound
[4] = system: TBA (DNA, G4) GGTTGGTGTGGTTGG; experiment: variable-temperature CD; details: K+ (100 mM KF, 10 mM potassium phosphate); PBS pH 7.4; 5 μM DNA, 5 equivalents (25 μM) compound
[5] = system: dsDNA (DNA, hairpin, HEG linker (non-nucleotide loop) between 10 and 11) TATAGCTATATATAGCTATA; experiment: variable-temperature CD; details: K+ (100 mM KF, 10 mM potassium phosphate); PBS pH 7.4; 5 μM DNA, 5 equivalents (25 μM) compound; per base
[6] = system: c-KIT1 (DNA, G4) GGGAGGGCGCTGGGAGGAGGG; experiment: UV-Vis titration; details: K+ (100 mM KF, 10 mM potassium phosphate); PBS pH 7.4, ca. 20 °C; 2 μM DNA; 1:1 fit
[7] = system: c-KIT1 (DNA, G4) GGGAGGGCGCTGGGAGGAGGG; experiment: variable-temperature CD; details: K+ (100 mM KF, 10 mM potassium phosphate); PBS pH 7.4; 2 μM DNA, 5 equivalents (10 μM) compound

KD [1] [µM]	KD [2] [µM]	ΔTm [3] [°C]	ΔTm [4] [°C]	ΔTm [5] [°C]	KD [6] [µM]	ΔTm [7] [°C]	Structure (SMILES)
11.0 ± 3.1	23.6 ± 8.4	1.7	−0.1	–	–	–	CC(C)C[C@@H](CC(=O)O)N1C(=O)c2ccc3c4c(ccc(c24)C1=O)C(=O)N([C@H](CC(=O)O)CC(C)C)C3=O
–	–	0.2	–	−2.1	–	–	C[C@@H](CC(=O)O)N1C(=O)c2ccc3c4c(ccc(c24)C1=O)C(=O)N([C@@H](C)CC(=O)O)C3=O
–	30.7 ± 6.9	–	–	–	8.0 ± 2.5	1.7	CC(C)(C)OC(=O)N[C@H](CN1C(=O)c2ccc3c4c(ccc(c24)C1=O)C(=O)N(C[C@@H](NC(=O)OC(C)(C)C)C(=O)O)C3=O)C(=O)O
–	65.2 ± 35.9	2.4	0.1	–	2.6 ± 0.4	5.4	CC(C)(C)OC(=O)N[C@@H](CN1C(=O)c2ccc3c4c(ccc(c24)C1=O)C(=O)N(C[C@H](NC(=O)OC(C)(C)C)C(=O)O)C3=O)C(=O)O
–	–	–	–	–	–	3.2	O=C(O)[C@@H](O)CN1C(=O)c2ccc3c4c(ccc(c24)C1=O)C(=O)N(C[C@H](O)C(=O)O)C3=O
–	–	–	0.8	−0.1	–	–	O=C(O)[C@@H](O)[C@@H](Cc1ccccc1)N1C(=O)c2ccc3c4c(ccc(c24)C1=O)C(=O)N([C@H](Cc1ccccc1)[C@H](O)C(=O)O)C3=O
13.6 ± 3.4	50.2 ± 15.4	–	–	–	–	−0.9	CC(C)C[C@H](CC(=O)O)N1C(=O)c2ccc3c4c(ccc(c24)C1=O)C(=O)N([C@@H](CC(=O)O)CC(C)C)C3=O

From paper PMC10647805 (2023)
